The values that follow come from ChEMBL document CHEMBL5131482, “Synthesis and SAR of novel GPR39 agonists and positive allosteric modulators” (Bioorg Med Chem Lett, 2022).

Active and inactive are the calls of the source. The rule behind the calls is not given here.

For orientation: Emax means the greatest response seen or fitted, relative to the assay's reference. In general, EC50 refers to the midpoint of the concentration-response curve.

The target of data set [1] is T1, G-protein coupled receptor 39 (Homo sapiens) (UniProt O43194).
T1 sequence (whole entry): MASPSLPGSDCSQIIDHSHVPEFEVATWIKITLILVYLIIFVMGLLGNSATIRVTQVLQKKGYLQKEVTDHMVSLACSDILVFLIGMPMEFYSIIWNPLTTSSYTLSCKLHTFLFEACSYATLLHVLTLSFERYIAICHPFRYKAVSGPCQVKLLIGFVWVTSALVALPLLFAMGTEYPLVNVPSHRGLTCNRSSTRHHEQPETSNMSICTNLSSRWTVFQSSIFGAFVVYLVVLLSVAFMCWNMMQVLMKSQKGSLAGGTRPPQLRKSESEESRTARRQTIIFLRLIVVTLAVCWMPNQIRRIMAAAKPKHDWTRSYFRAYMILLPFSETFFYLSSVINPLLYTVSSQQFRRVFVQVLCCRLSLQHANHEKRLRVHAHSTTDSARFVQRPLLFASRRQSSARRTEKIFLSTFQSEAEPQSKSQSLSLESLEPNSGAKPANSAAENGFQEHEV
As to the kind of experiment: Agonist activity at human GPR39 receptor expressed in CHO cells assessed as increase in ca2+ flux relative to Zn2+. It counts as functional, cell-based. On the technique in general: A change in cytosolic calcium serves as a functional read-out for many receptors and channels.

Data set [2] addresses T2, G-protein coupled receptor 39 (Homo sapiens, UniProt O43194).
T2 sequence (O43194 whole entry): T1 sequence (whole entry)
As to the kind of experiment: Positive allosteric activity at human GPR39 receptor expressed in CHO cells assessed as increase in zn2+ induced ca2+ flux. Format: cell-based.

Data set [3] concerns the target T2, G-protein coupled receptor 39. As to the kind of experiment: Agonist activity at human GPR39 receptor expressed in CHO cells assessed as increase in ca2+ flux. Format: functional, cell-based.
For data set [4], the target named is T1, G-protein coupled receptor 39 (Homo sapiens). As to the kind of experiment: Positive allosteric activity at human GPR39 receptor expressed in CHO cells assessed as increase in zn2+ induced ca2+ flux relative to Zn2+. Format: cell-based. As to conditions: filed as positive allosteric modulator.
For data set [5], the system named is SH-SY5Y. As to the kind of experiment: Neuroprotective activity against 6-OHDA-induced PD model of human SH-SY5Y cells assessed as increase in cell viability. It counts as functional, cell-based.
The subject of data set [6] is SH-SY5Y. As to the kind of experiment: Cytotoxicity in human SH-SY5Y cells assessed as decrease in cell viability at 10 uM. Format: toxicity, cell-based.
[7] abbreviates: filed as positive allosteric modulator.

Take `Cc1cc(NC(C)c2ccc(F)cc2)n2ncc(-c3ccccn3)c2n1` (single isomer, unassigned; enantiomer 1) [listing 1 of 2 here]: the maximal response (Emax) in data set [1] (setting [7]) is 51%.
`Cc1cc(N2CCCC2c2ccccc2)n2ncc(-c3ccccn3)c2n1` (racemic): in data set [1], the maximal effect (Emax) was determined as 36%. For the same compound, the EC50 was above 27.1 µM in data set [2] and 17 nM in data set [3].
`Cc1cc(N2CCC(c3ccccc3)C2)n2ncc(-c3ccccn3)c2n1` (single isomer, unassigned; enantiomer 2) [listing 1 of 2 here]: the results for the half-maximal effective concentration (EC50) in data set [2] and in data set [3] (cho) were 0.273 µM and above 10000 nM, respectively.
As for `Cc1cc(N2C(=O)CCC2c2ccccc2)n2ncc(-c3ccccn3)c2n1` (racemic), the EC50 is above 27.1 µM in data set [2] and above 31600 nM in data set [3].
The like results for `Cc1cc(N2CCC(c3ccccc3)C2)n2ncc(-c3ccccn3)c2n1` (single isomer, unassigned; enantiomer 1) [listing 1 of 2 here] were, in that order, 0.142 µM and above 10000 nM.
On to `Cc1cc(NC(C)(C)c2ccc(F)cc2)n2ncc(-c3ccccn3)c2n1`, for which the Emax in data set [1] is 38%. The EC50 was above 27.1 µM in data set [2] and 63 nM in data set [3].
With `CNc1nc(NCc2ccccc2Cl)cc(-c2ccccn2)n1`, the Emax in data set [1] (setting [7]) was 86%. The figures for the 50% effective concentration (EC50) in data set [2] and in data set [3] were above 27.1 µM and 3 nM, respectively.
In the case of `NC(Cc1cnc[nH]1)c1nc2ccc(-c3ccccc3)cc2c(=O)[nH]1` (stereo not drawn), the values for the EC50 in data set [2] and in data set [3] were 0.251 µM and above 50000 nM, respectively. In addition, in data set [4], the Emax amounted to 102%.
As to `Cc1cc(N2CCCC2c2cccnc2)n2ncc(-c3ccccn3)c2n1` (single isomer, unassigned; enantiomer 2) [listing 1 of 2 here], the Emax in data set [1] (setting [7]) came to 64%.
For `CNc1nc(NC2CCCCC2)cc(-c2ccccn2)n1`, the Emax in data set [1] (setting [7]) amounted to 49%. The half-maximal effective concentration (EC50) in data set [2] was above 27.1 µM; in data set [3], 16 nM.
Take `Cc1cc(N2CCCC2c2cccnc2)n2ncc(-c3ccccn3)c2n1` (single isomer, unassigned; enantiomer 1) [listing 1 of 2 here]: in data set [1] (setting [7]), the Emax came out at 58%.
Take `Cc1cc(NC(C)c2ccc(F)cc2)n2ncc(-c3ccccn3)c2n1` (single isomer, unassigned; enantiomer 2) [listing 1 of 2 here]: the outcome in the data set with SH-SY5Y [5] was Active. The maximal response (Emax) in data set [1] (setting [7]) worked out at 68%.
Take `CNc1nc(NCc2ccc(NS(C)(=O)=O)cc2Cl)cc(-c2ccccn2)n1`: the outcome in the data set with SH-SY5Y [5] was Active. Further, the Emax in data set [1] (setting [7]) came to 84%. In addition, the Activity entry in the data set with SH-SY5Y [6] is on record as “Toxic”. For the same compound, the EC50 is above 27.1 µM in data set [2] and 15 nM in data set [3].
Take `O=C(Cc1nn(CC2CCC2)c(=O)c2ccccc12)NCc1ccccn1`: the EC50 is 4.04 µM in data set [2] and above 50000 nM in data set [3]. In data set [4], the maximal effect (Emax) stood at 49%.
As to `N#Cc1ccc(N2CCN(Cc3cn4cc(Cl)ccc4n3)CC2)nc1`, the Emax in data set [1] (setting [7]) is 48%. In addition, in data set [3], the EC50 was determined as 6250 nM.
Turning to `Cc1cc(N2CCC(c3ccccc3)C2)n2ncc(-c3ccccn3)c2n1` (single isomer, unassigned; enantiomer 1) [listing 2 of 2 here], the Emax in data set [4] turned out to be 65%.
As for `Cc1cc(NCc2ccc(F)cc2)n2ncc(-c3ccccn3)c2n1`, the maximal response (Emax) in data set [1] (setting [7]) was 57%. Further, the 50% effective concentration (EC50) in data set [2] was above 27.1 µM; in data set [3], 15 nM.
Consider `CNc1cc(-c2ccccn2)nc(NC2CCCCC2)n1`, for which the figures for the concentration for a half-maximal effect (EC50) in data set [2] and in data set [3] were 0.487 µM and above 31600 nM, respectively. Also, the Emax in data set [4] turned out to be 88%.
On to `Cc1cc(NC(C)c2ccc(F)cc2)n2ncc(-c3ccccn3)c2n1` (single isomer, unassigned; enantiomer 1) [listing 2 of 2 here], for which the EC50 in data set [2] was above 27.1 µM; in data set [3], 17 nM.
Take `Cc1cc(N2CCCC2c2cccnc2)n2ncc(-c3ccccn3)c2n1` (single isomer, unassigned; enantiomer 2) [listing 2 of 2 here]: the EC50 in data set [2] (cho) is above 27.1 µM; in data set [3] it was 240 nM.
Consider `CNc1nc(Oc2ccccc2)cc(-c2ccccn2)n1`, for which the maximal response (Emax) in data set [1] (setting [7]) was found to be 58%; in data set [4], 48%. Further, the concentration for a half-maximal effect (EC50) in data set [2] is 0.023 µM; in data set [3], 481 nM.
`Cc1cc(N2CCCC2c2cccnc2)n2ncc(-c3ccccn3)c2n1` (single isomer, unassigned; enantiomer 1) [listing 2 of 2 here]: the EC50 was above 27.1 µM in data set [2] and 79 nM in data set [3].
Regarding `Cc1cc(N2CCC(c3ccccc3)C2)n2ncc(-c3ccccn3)c2n1` (single isomer, unassigned; enantiomer 2) [listing 2 of 2 here], in data set [4], the Emax was 54%.
Regarding `CNC(=O)C(Nc1cc(C)nc2c(-c3ccccn3)cnn12)c1ccc(F)cc1` (racemic), in data set [1] (setting [7]), the Emax amounted to 75%. In addition, the figures for the concentration for a half-maximal effect (EC50) in data set [2] and in data set [3] were above 27.1 µM and 78 nM, respectively.
In the case of `Cn1cc(-c2ccc3nc(C(N)CCOCc4ccccc4)[nH]c(=O)c3c2)cn1` (stereo not drawn), the EC50 is 0.641 µM in data set [2] and above 50000 nM in data set [3]. In data set [4], the maximum response (Emax) was found to be 83%.
Consider `Cc1cc(NC(C)c2ccc(F)cc2)n2ncc(-c3ccccn3)c2n1` (single isomer, unassigned; enantiomer 2) [listing 2 of 2 here], for which the Activity result in the data set on SH-SY5Y [6] is recorded as “Toxic”. The half-maximal effective concentration (EC50) in data set [2] (cho) is above 27.1 µM; in data set [3], 26 nM.
